Test results: patent US11716994B2, “Combinations of Yersinia entomophaga and pesticides or other substances” (priority 2017, dated 2023)
Read-outs that look alike come from different tables or passages of the source.

Experiments:
diamondback moth [1] = experiment: whole plant or invertebrate; conditions: for LT50 (95% confidence intervals): 2nd instar diamondback moth; for mortality at 0.29 µg/mL: Plutella xylostella, foliar, Abbott's corrected
Source text: (§1) These were set to dry for 1 hr.
as §1
These were set to dry for 1 hr. Cabbage disks were then dipped in either 1% Luria broth (LB) media solution (controls and thiacloprid alone treatments) or in 1% cell free filtrate from a culture Y. entomophaga isolate O24G3R (Y. entomophaga alone or in combination with thiacloprid treatments).

black cutworm = experiment: Leaf disk mortality assay, Y. entomophaga cells with chemical insecticides; conditions: for % Mort. Chem. / LT50 Chem.: black cutworm
diamondback moth [2] = experiment: as above; conditions: for mortality at 0.29 µg/mL / mortality at 150 µg/mL: Plutella xylostella, foliar; for % Mort. Chem. / LT50 Chem.: diamondback moth
Colorado potato beetle = experiment: Tomato leaf disk mortality assay, Y. entomophaga cells with chemical insecticides; conditions: for LT50 (95% confidence intervals): isolate O43NEW 1×10^7 cfu/mL; for % Mort. Chem. / LT50 Chem.: Colorado potato beetle; for % Mort. Chem.: 5 DAT; for mortality at 0.88 µg/mL / mortality at 120 µg/mL: Leptinotarsa decemlineata, in Solanum lycopersicum, foliar
cabbage looper [3] = conditions: for LT50 Chem. / % Mort. Chem.: Cabbage Looper
Description: To produce cell free filtrates, cultures of Yersinia entomophaga grown in LB medium were centrifuged at 11,448 (g) for 10 minutes. The supernatant was decanted from the centrifuged pellet and filtered through a 0.22 μm filter. Assays were performed to determine concentrations of Yen-TC (toxin complex) using ELISA, and chitinase by measuring chitinase activity on specific substrates. […] This was done to estimate relative potency of the cell free filtrates. Insects were first pre-screened with a range of dilutions of cell free filtrates to select a concentration that provided moderate activity. […] Based on these initial screens, undiluted cell free filtrate was used for cabbage looper, fall armyworm, black cutworm, and Colorado potato beetle. […] In each of the Examples below, this is expressed as 1%.
Cabbage leaf disks were dipped in either acetone (controls and Y. entomophaga alone treatments) or novaluron (Sigma 32419) at 1.0 mg/L in acetone. These were set to dry for 1 hr. […] After the cabbage disks had dried for 1 hr, a single 3rd instar cabbage looper was added to each individual cabbage disk. A total of 20 insects were evaluate for each treatment. Insects were observed daily and scored as live or dead.

Yersinia entomophaga = experiment: CFU counts after exposure of Yersinia entomophaga to insecticides; format: cell-based; conditions: 1 hour contact
Source text: To test combinations of Yersinia entomophaga and pesticides for their ability to produce a pesticidal effect, or an effect on plant growth or yield, we first put various insecticides in contact with Yersinia to identify insecticides that had minimal toxicity to Yersinia entomophaga. The logic was that, if Yersinia entomophaga is to function well in combination with a chemical insecticide, the chemical insecticide would ideally have low or no effect on the ability of Yersinia entomophaga to survive, grow and/or to function.
To perform this study, we selected amounts of various insecticides based on the percent of the specific insecticide in the insecticide composition obtained from a manufacturer. We also considered the application rate of the particular insecticide, as recommended by the manufacturer. […] Generally, the 1× amount was considered possibly the lowest amount of insecticide that may be considered as an effective amount for use in the combinations disclosed herein. For each insecticide, we also used a higher amount of insecticide (generally a 5× or 10× amount).
The 1× and 5×/10× amounts of each insecticide were added to tubes along with 1 ml of ethyl acetate. The tubes were mixed until the insecticides dissolved. The tubes were left open in a fume hood overnight to allow the ethyl acetate to evaporate. The insecticide remained in the tubes, as a solid coat on the interior surface of the tubes.
A growing culture of Yersinia entomophaga, grown in LB medium, was diluted and 1 ml of the diluted culture was added to each tube containing the dried insecticide. The tubes were mixed and then left on the bench top for 1 hour. Then, 100 μl from each tube was plated onto LB plates in triplicate in CFU assays. Plates were incubated at 25° C. for 48 hours and colonies were counted.

cabbage looper [4] = tested on: cabbage looper
fall armyworm = experiment: Leaf disk mortality assay, Y. entomophaga cells with chemical insecticides
[5] = 3rd instar, deltamethrin 0.175 mg/L, isolate O43NEW 1×10^4 cfu/mL
[6] = 3rd instar, deltamethrin 1.75 mg/L, isolate O43NEW 1×10^4 cfu/mL
[7] = 48 h, read-out: % Mortality (2DAT)
[8] = 96 h, read-out: % Mortality (4DAT)
[9] = 168 h, read-out: % Mortality (7DAT)
[10] = 120 h, read-out: % Mortality (5DAT)
[11] = 144 h, read-out: % Mortality (6DAT)
[12] = 3rd instar, emamectin benzoate 0.67 mg/L, isolate O23ZMJ 1×10^5 cfu/mL
[13] = 3rd instar, emamectin benzoate 0.002 mg/L, isolate O43NEW 1×10^3 cfu/mL

`CC1(C)[C@H](C(=O)O[C@H](C#N)c2cccc(Oc3ccccc3)c2)[C@@H]1C=C(Br)Br` [Deltamethrin] was tested, and the “LT50 (95% confidence intervals)” value (diamondback moth [1]; deltamethrin 0.29 mg/L, O43NEW filtrate 1%, alone or combined) was 11.58 days, the “LT50 (95% confidence intervals)” value (diamondback moth [1]; deltamethrin […], O333A4 filtrate 1%, alone or combined) was 12.78 days and the “LT50 Chem.” value (diamondback moth [1]; Diamondback moth, deltamethrin 0.29 mg/L) was 11.58 days. For the same compound, the “% Mort. Chem.” value (diamondback moth [1]; Diamondback moth, deltamethrin 0.29 mg/L, 4 DAT) was 16%, the “LT50 Chem.” value (diamondback moth [1]; Diamondback moth, deltamethrin […]) was 12.78 days and the mortality at 0.29 µg/mL (diamondback moth [1]; 48 h, read-out: % Mortality (2DAT), 2nd instar diamondback moth, deltamethrin 0.29 mg/L, O43NEW filtrate 1%, alone or combined, 2 DAT) was 0%. It also gave a mortality at 0.29 µg/mL (diamondback moth [1]; 72 h, read-out: % Mortality (3DAT), 2nd instar diamondback moth, deltamethrin 0.29 mg/L, O43NEW filtrate 1%, alone or combined, 3 DAT) of 5%, a mortality at 0.29 µg/mL (diamondback moth [1]; 96 h, read-out: % Mortality (4DAT), 2nd instar diamondback moth, deltamethrin 0.29 mg/L, O43NEW filtrate 1%, alone or combined, 4 DAT) of 16% and a mortality at 0.29 µg/mL (diamondback moth [1]; 168 h, read-out: % Mortality (7DAT), 2nd instar diamondback moth, deltamethrin 0.29 mg/L, O43NEW filtrate 1%, alone or combined, 7 DAT) of 21%. For the same compound, the mortality at 0.29 µg/mL (diamondback moth [1]; 216 h, read-out: % Mortality (9DAT), 2nd instar diamondback moth, deltamethrin 0.29 mg/L, O43NEW filtrate 1%, alone or combined, 9 DAT) was 25%, the “% Mortality (3DAT)” value (black cutworm; [5]) was 5% and the “% Mortality (6DAT)” value (black cutworm; [5]) was 35%. The “% Mortality (9DAT)” value (black cutworm; [5]) was 55%, the “% Mortality (10DAT)” value (black cutworm; [5]) was 63% and the “LT50 (95% confidence intervals)” value (black cutworm; [5]) was 7.67 days. For the same compound, the “% Mortality (3DAT)” value (black cutworm; [6]) was 45%, the “LT50 (95% confidence intervals)” value (black cutworm; [6]) was 3.37 days and the “% Mort. Chem.” value (black cutworm; Deltamethrin 0.175 mg/L, 6 DAT) was 35%. The “% Mort. Chem.” value (black cutworm; Deltamethrin 1.75 mg/L, 3 DAT) was 45%, the “LT50 Chem.” value (black cutworm; Deltamethrin alone 0.175 mg/L) was 7.67 days and the “LT50 Chem.” value (black cutworm; Deltamethrin alone 1.75 mg/L) was 3.37 days. The “LT50 (95% confidence intervals)” value (diamondback moth [2]; 3rd instar, deltamethrin 0.29 mg/L, isolate O43NEW 1×10^3 cfu/mL) was 11.58 days, the mortality at 0.29 µg/mL (diamondback moth [2]; [7]) was 0% and the mortality at 0.29 µg/mL (diamondback moth [2]; [8]) was 16%. It also gave a mortality at 0.29 µg/mL (diamondback moth [2]; [9]) of 21%, a mortality at 0.29 µg/mL (diamondback moth [2]; 240 h, read-out: % Mortality (10DAT)) of 32% and a mortality at 0.29 µg/mL (diamondback moth [2]; 336 h, read-out: % Mortality (14DAT)) of 54%. The mortality at 0.29 µg/mL (diamondback moth [2]; […], read-out: % Mortality (8DAT)) was 24%, the “% Mort. Chem.” value (diamondback moth [2]; Deltamethrin 0.29 mg/L, 8 DAT) was 24% and the “LT50 Chem.” value (diamondback moth [2]; Deltamethrin alone 0.29 mg/L) was 11.58 days. For the same compound, the “LT50 (95% confidence intervals)” value (Colorado potato beetle; 3rd instar larva, deltamethrin 0.88 mg/L) was 11.6 days, the “% Mort. Chem.” value (Colorado potato beetle; Deltamethrin 0.88 mg/L) was 30% and the “LT50 Chem.” value (Colorado potato beetle; Deltamethrin alone 0.88 mg/L) was 11.60 days. The mortality at 0.88 µg/mL (Colorado potato beetle; [7]) was 30%, the mortality at 0.88 µg/mL (Colorado potato beetle; [10]) was 30% and the mortality at 0.88 µg/mL (Colorado potato beetle; [11]) was 30%. It also gave a mortality at 0.88 µg/mL (Colorado potato beetle; [9]) of 30% and a mortality at 0.88 µg/mL (Colorado potato beetle; 216 h, read-out: % Mortality (9DAT)) of 30%.
In the case of `CC[S+]([O-])c1c(C#N)nn(-c2c(Cl)cc(C(F)(F)F)cc2Cl)c1N` (centres unmarked) [Ethiprole], the “LT50 (95% confidence intervals)” value (Colorado potato beetle; 4th instar larva, ethiprole 120 mg/L) was 8.90 days, the “% Mort. Chem.” value (Colorado potato beetle; Ethiprole 120 mg/L) was 21% and the “LT50 Chem.” value (Colorado potato beetle; Ethiprole alone 120 mg/L) was 8.90 days. For the same compound, the mortality at 120 µg/mL (Colorado potato beetle; 72 h, read-out: % Mortality (3DAT)) was 21%, the mortality at 120 µg/mL (Colorado potato beetle; [8]) was 21% and the mortality at 120 µg/mL (Colorado potato beetle; [10]) was 21%. The mortality at 120 µg/mL (Colorado potato beetle; [11]) was 37%.
With `CN1COCN(Cc2cnc(Cl)s2)/C1=N\[N+](=O)[O-]` [Thiamethoxam] the “LT50 (95% confidence intervals) in days” value (cabbage looper [3]; 3rd instar cabbage looper, thiamethoxam 150 mg/L, O43NEW undiluted filtrate, alone or combined) was 6.97 (5.92-8.22) days, the “LT50 Chem.” value (cabbage looper [3]; thiamethoxam 150 mg/L) was 6.97 days and the “% Mort. Chem.” value (cabbage looper [3]; thiamethoxam 150 mg/L, DAT column prints 62) was 1.1%. For the same compound, the mortality at 150 µg/mL (diamondback moth [2]; [10]) was 11%, the mortality at 150 µg/mL (diamondback moth [2]; [11]) was 16% and the “% Mort. Chem.” value (diamondback moth [2]; Thiamethoxam 150 mg/L, 6 DAT) was 16%. The “LT50 Chem.” value (diamondback moth [2]; Thiamethoxam alone 150 mg/L) was 10.09 days.
Emamectin benzoate was tested, and the “Average CFU” value (Yersinia entomophaga; 1.5 mg insecticide) was 489 CFU, the “Average CFU” value (Yersinia entomophaga; 15 mg insecticide) was 459 CFU and the “LT50 (95% confidence intervals) in days” value (diamondback moth [1]; 3rd instar diamondback moth, emamectin benzoate 0.002 mg/L, O43NEW filtrate 1%, alone or combined) was 6.21 (5.38-7.14) days. For the same compound, the “LT50 Chem.” value (diamondback moth [1]; Diamondback moth, emamectin benzoate 0.002 mg/L) was 6.21 days, the “% Mort. Chem.” value (cabbage looper [4]; cabbage looper, Emamectin benzoate 0.02 mg/L, 7 DAT) was 13% and the “% Mortality (7DAT)” value (cabbage looper [4]; in vivo) was 13%. The “LT50 (95% confidence intervals) in days” value (cabbage looper [4]; in vivo) was 7.61 (7.08-8.19) days, the “LT50 Chem.” value (cabbage looper [4]; in vivo) was 7.61 days and the “% Mortality (5DAT)” value (cabbage looper [3]; 3rd instar cabbage looper, emamectin benzoate 0.02 mg/L, O43NEW undiluted filtrate, alone or combined, 5 DAT, Abbott's corrected) was 5%. For the same compound, the “% Mortality (12DAT)” value (cabbage looper [3]; 3rd instar cabbage looper, emamectin benzoate 0.02 mg/L, O43NEW undiluted filtrate, alone or combined, 12 DAT, Abbott's corrected) was 94%, the “LT50 Chem.” value (cabbage looper [3]; emamectin benzoate 0.02 mg/L) was 7.22 days and the “% Mort. Chem.” value (cabbage looper [3]; emamectin benzoate 0.02 mg/L, 5 DAT) was 94%. The “% Mortality (4DAT)” value (fall armyworm; [12]) was 20%, the “LT50 (95% confidence intervals) in days” value (fall armyworm; [12]) was 5.10 (4.65-5.59) days and the “LT75 (95% confidence intervals) in days” value (fall armyworm; 3rd instar, emamectin benzoate 2 mg/L, isolate O43NEW 1×10^6 cfu/mL) was 6.54 (5.76-7.44) days. For the same compound, the “% Mort. Chem.” value (fall armyworm; fall armyworm, Emamectin benzoate 0.67 mg/L, 4 DAT) was 20%, the “LT50 Chem.” value (fall armyworm; fall armyworm, Emamectin benzoate alone 0.67 mg/L) was 5.10 days and the “LT50 Chem.” value (fall armyworm; fall armyworm, Emamectin benzoate alone 2 mg/L) was 6.54 days. The “% Mortality (4DAT)” value (diamondback moth [2]; [13]) was 5%, the “LT50 (95% confidence intervals) in days” value (diamondback moth [2]; [13]) was 6.21 (5.38-7.14) days and the “% Mort. Chem.” value (diamondback moth [2]; Emamectin benzoate 0.002 mg/L, 4 DAT) was 5%. For the same compound, the “LT50 Chem.” value (diamondback moth [2]; Emamectin benzoate alone 0.002 mg/L) was 6.21 days.
